Inhibition data for 59 compounds are collected here from ChEMBL document CHEMBL1154295, “Potent and selective steroidal inhibitors of 17beta-hydroxysteroid dehydrogenase type 7, an enzyme that catalyzes the reduction of the key hormones estrone and dihydrotestosterone” (J Med Chem, 2009).

Assay [1] has as its target T1, 3-keto-steroid reductase/17-beta-hydroxysteroid dehydrogenase 7 (Homo sapiens) (UniProt P56937).
T1 sequence (whole entry): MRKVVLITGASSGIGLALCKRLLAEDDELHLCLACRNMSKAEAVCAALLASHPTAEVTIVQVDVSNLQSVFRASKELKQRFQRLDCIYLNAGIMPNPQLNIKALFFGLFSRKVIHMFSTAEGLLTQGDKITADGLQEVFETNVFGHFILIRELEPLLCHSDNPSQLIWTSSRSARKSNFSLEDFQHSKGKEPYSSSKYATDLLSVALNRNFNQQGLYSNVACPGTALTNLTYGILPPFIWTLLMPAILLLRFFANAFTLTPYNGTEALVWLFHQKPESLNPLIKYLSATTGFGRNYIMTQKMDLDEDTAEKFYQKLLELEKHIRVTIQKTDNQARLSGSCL
The following applies: HEK293, at 0.3 µM.
Description: Inhibition of human 17beta-HSD7 expressed in HEK293 cells assessed as inhibition of reduction of [14C]estrone into [14C]estradiol at 0.3 uM after 7 hrs

The target in assay [2] is T1, 3-keto-steroid reductase/17-beta-hydroxysteroid dehydrogenase 7 (Homo sapiens). The following applies: HEK293, at 3 µM.
Description: Inhibition of human 17beta-HSD7 expressed in HEK293 cells assessed as inhibition of reduction of [14C]estrone into [14C]estradiol at 3 uM after 7 hrs

What is called inhibition is the share of the control response that was lost under treatment. Low values mean little suppression, high ones strong suppression. `CC(C)(C#N)c1cc(Cn2cncn2)cc(C(C)(C)C#N)c1`: the inhibition in assay [1] was 6.5%; in assay [2], 0.3%.

As for `C[C@]12CCC(=O)N[C@@H]1CC[C@@H]1[C@@H]2CC[C@]2(C)[C@@H](N3CCC3=O)CC[C@@H]12`, the inhibition came to 15.4% in assay [1] and 20.3% in assay [2].

Turning to `C[C@]12CC[C@H]3[C@@H](CCC4=CC(=O)CC[C@@]43C)[C@@H]1CC[C@@H]2C(=O)CO`, the values for the inhibition in assay [1] and in assay [2] were 11.2% and 11.9%, respectively.

For `CN1C(=O)CC[C@]2(C)[C@H]3CC[C@]4(C)[C@@H](Nc5ccc([N+](=O)[O-])cc5)CC[C@H]4[C@@H]3CC[C@@H]12`, the inhibition in assay [1] was determined as 40.9%; in assay [2], 88%.

For `C[C@]12CC[C@H]3C(=CCc4cc(O)ccc43)[C@@H]1CC[C@@H]2O`, the inhibition in assay [1] was determined as 12.6%; in assay [2], 8.8%.

As for `CCCC1CC[C@@]2(CC[C@H]3[C@@H]4CCc5cc(O)ccc5[C@H]4CC[C@@]32C)OC1=O` (stereo not given in full), the inhibition in assay [1] worked out at 15.8%; in assay [2], 47.1%.

Turning to `O=c1c(-c2ccc(O)cc2)coc2cc(O)cc(O)c12`, the inhibition in assay [1] and in assay [2] was 0% each time.

In assay [2], `C[C@]12CCC(=O)C[C@@H]1CC[C@@H]1[C@@H]2CC[C@@]2(C)[C@H]1CC[C@]2(O)C(=O)CO` yielded an inhibition of 13.4%.

In the case of `CCCNC(=O)N(C)[C@H]1CC[C@H]2[C@@H]3CC[C@H]4N(C)C(=O)CC[C@]4(C)[C@H]3CC[C@]12C`, the inhibition in assay [1] stood at 2.7%; in assay [2] it was 2.2%.

In assay [2], `C[C@]12CC[C@@H](O)C[C@@H]1CC[C@@H]1[C@@H]2CC[C@]2(C)C(=O)CC[C@@H]12` gave an inhibition of 2.2%.

In the case of `C[C@]12CCC(=O)N[C@@H]1CC[C@@H]1[C@@H]2CC[C@]2(C)[C@@H](N(C(=O)c3ccccc3)c3ccccc3)CC[C@@H]12`, the values for the inhibition in assay [1] and in assay [2] were 24% and 64.1%, respectively.

As for `C[C@]12CCC(=O)C=C1CC[C@@H]1[C@@H]2[C@@H](O)C[C@]2(C=O)[C@@H](C(=O)CO)CC[C@@H]12`, the inhibition in assay [1] came to 14.4%; in assay [2], 7.3%.

Consider `O=c1cc(-c2ccccc2)oc2cc(O)cc(O)c12`, for which the values for the inhibition in assay [1] and in assay [2] were 6.8% and 5.1%, respectively.

Consider `C[C@]12CCC(=O)C[C@@H]1CC[C@@H]1[C@@H]2[C@@H](O)C[C@@]2(C)[C@H]1CC[C@]2(O)C(=O)CO`, for which the inhibition in assay [2] is 17.2%.

Consider `CCC[C@]1(O)CC[C@H]2[C@@H]3CC[C@H]4N(C)C(=O)CC[C@]4(C)[C@H]3CC[C@@]21C`, for which the inhibition was 47.6% in assay [1] and 98.5% in assay [2].

In the case of `CC(=O)[C@@]1(O)CC[C@H]2[C@@H]3CC=C4C[C@@H](O)CC[C@]4(C)[C@H]3CC[C@@]21C`, the inhibition in assay [2] was determined as 4.1%.

As to `C[C@]12CC[C@@H]3c4ccc(O)cc4CC[C@H]3[C@@H]1CCC2=O`, the inhibition in assay [2] was 10.1%.

For the compound `CCCNC(=O)N(C1CC1)[C@H]1CC[C@H]2[C@@H]3CC[C@H]4N(C)C(=O)C=C[C@]4(C)[C@H]3CC[C@]12C`, the inhibition in assay [1] was 7.8%; in assay [2] it was 8.5%.

In the case of `CCCCCCN(C=O)[C@H]1CC[C@H]2[C@@H]3CC[C@H]4N(C)C(=O)CC[C@]4(C)[C@H]3CC[C@]12C`, the inhibition in assay [1] stood at 94.1%; in assay [2] it was 100%.

For `C[C@]12CC[C@H](O)C=C1CC[C@@H]1[C@@H]2CC[C@]2(C)C(=O)CC[C@@H]12`, the inhibition in assay [2] turned out to be 12.2%.

For the compound `CC(=O)[C@H]1CC[C@H]2[C@@H]3CCC4=CC(=O)CC[C@]4(C)[C@H]3CC[C@]12C`, the inhibition is 7.3% in assay [1] and 19.1% in assay [2].

With `CC1(C)CC[C@@]2(CC[C@H]3[C@@H]4CCc5cc(OS(=O)(=O)c6ccccc6)ccc5[C@H]4CC[C@@]32C)OC1=O`, the results for the inhibition in assay [1] and in assay [2] were 11.7% and 29.5%, respectively.

Take `CN1C(=S)CC[C@]2(C)[C@H]3CC[C@@]4(C)[C@@H](CC[C@@]45CCCC(=O)O5)[C@@H]3CC[C@@H]12`: the values for the inhibition in assay [1] and in assay [2] were 11.9% and 12.9%, respectively.

For the compound `CC(C)C(=O)N(c1ccc([N+](=O)[O-])c(C(F)(F)F)c1)[C@H]1CC[C@H]2[C@@H]3CC[C@H]4N(C)C(=O)CC[C@]4(C)[C@H]3CC[C@]12C`, the figures for the inhibition in assay [1] and in assay [2] were 13.7% and 71.3%, respectively.

Consider `CC(C)C(=O)Nc1ccc([N+](=O)[O-])c(C(F)(F)F)c1`, for which the inhibition in assay [1] is 18.6%; in assay [2] it was 10.8%.

Regarding `CCC(=C(c1ccc(O)cc1)c1ccc(OCCN(C)C)cc1)c1ccccc1`, the inhibition in assay [2] was determined as 3%.

On to `CC1(C)CC[C@@]2(CC[C@H]3[C@@H]4CCc5cc(O)ccc5[C@H]4CC[C@@]32C)OC1=O`, for which the results for the inhibition in assay [1] and in assay [2] were 20.1% and 69.4%, respectively.

With `CC1(C)CC[C@@]2(CC[C@H]3[C@@H]4CC[C@H]5NC(=O)C=C[C@]5(C)[C@H]4CC[C@@]32C)OC1=O`, the inhibition in assay [1] came to 5%; in assay [2], 39.6%.

As to `CC(=O)[C@@]1(O)CC[C@H]2[C@@H]3CCC4=CC(=O)CC[C@]4(C)[C@H]3CC[C@@]21C`, the inhibition in assay [2] amounted to 20.8%.

Consider `CC(=O)S[C@@H]1CC2=CC(=O)CC[C@]2(C)[C@H]2CC[C@@]3(C)[C@@H](CC[C@@]34CCC(=O)O4)[C@H]12`, for which the inhibition in assay [1] stood at 7.2%; in assay [2], 7.5%.

`COC(=O)[C@H]1CC[C@H]2[C@@H]3CC=C4C=C(Cl)CC[C@]4(C)[C@H]3CC[C@]12C`: the inhibition in assay [1] was found to be 0.6%; in assay [2] it was 16.2%.

Consider `CC1=C(c2ccc(OC(=O)C(C)(C)C)cc2)[C@H](c2ccc(OCCN3CCCCC3)cc2)Oc2cc(OC(=O)C(C)(C)C)ccc21`, for which the inhibition in assay [1] and in assay [2] was 0% each time.

Regarding `CC(C)(O)C(=O)Nc1ccc([N+](=O)[O-])c(C(F)(F)F)c1`, in assay [2], the inhibition was determined as 8.2%.

With `CN1C(=O)C=C[C@]2(C)[C@H]3CC[C@]4(C)[C@@H](N(C(=O)NC5CCCCC5)C5CC5)CC[C@H]4[C@@H]3CC[C@@H]12`, the inhibition is 8.2% in assay [1] and 0.8% in assay [2].

On to `CC1(C)CC[C@@]2(CC[C@H]3[C@@H]4CCc5cc(C(N)=O)ccc5[C@H]4CC[C@@]32C)OC1=O`, for which the inhibition in assay [1] came out at 11.6%; in assay [2] it was 27%.

In assay [2], `C[C@]12CC[C@H](O)C[C@@H]1CC[C@@H]1[C@@H]2CC[C@]2(C)C(=O)CC[C@@H]12` showed an inhibition of 8.1%.

In assay [2], `CC1(C)CC[C@@]2(CC[C@H]3[C@@H]4CCc5ccccc5[C@H]4CC[C@@]32C)OC1=O` returned an inhibition of 18.6%.

As for `CN(C)C(=O)CCCCCCCCCCC1Cc2cc(O)ccc2[C@H]2CC[C@]3(C)[C@@H](O)[C@H](Cl)C[C@H]3[C@H]12` (stereo not given in full), in assay [2], the inhibition is 18.5%.

Consider `CC(=O)[C@@]1(O)CC[C@H]2[C@@H]3CC[C@H]4CC(=O)CC[C@]4(C)[C@H]3CC[C@@]21C`, for which the inhibition in assay [2] turned out to be 14.5%.

Turning to `C[C@]12CCc3c(ccc4cc(O)ccc34)[C@@H]1CCC2=O`, the inhibition in assay [2] worked out at 14.2%.

In assay [2], `C[C@]12CC[C@@H]3c4ccc(O)cc4CC[C@H]3[C@@H]1C[C@@H](O)[C@@H]2O` had an inhibition of 29.5%.

As for `C[C@]12CC[C@H]3C(=CCc4cc(O)ccc43)[C@@H]1CCC2=O`, in assay [2], the inhibition is 0%.

The compound `CCCCCCCN(C(=O)c1c(F)c(F)c(F)c(F)c1F)[C@H]1CC[C@H]2[C@@H]3CC[C@H]4N(C)C(=O)CC[C@]4(C)[C@H]3CC[C@]12C` yielded an inhibition in assay [1] of 67%.

On to `CC(=O)[C@H]1CC[C@H]2[C@@H]3CC=C4C[C@@H](O)CC[C@]4(C)[C@H]3CC[C@]12C`, for which the inhibition in assay [2] worked out at 13.2%.

`CCCCCCCN(C(=O)c1c(F)cccc1C(F)(F)F)[C@H]1CC[C@H]2[C@@H]3CC[C@H]4N(C)C(=O)CC[C@]4(C)[C@H]3CC[C@]12C` came in with an inhibition in assay [1] of 49%.

Take `C[C@]12CC[C@H](O)C[C@@H]1CC[C@@H]1[C@@H]2CC[C@]2(C)[C@@H](O)CC[C@@H]12`: the inhibition in assay [2] was found to be 4.5%.

In assay [2], `C[C@]12CC=C3c4ccc(O)cc4CC[C@H]3[C@@H]1CCC2=O` showed an inhibition of 24%.

The compound `C[C@]12CC[C@H]3[C@@H](CCC4=CC(=O)CC[C@@]43C)[C@@H]1CC[C@@H]2O` displayed an inhibition in assay [2] of 7.5%.

Consider `C[C@]12CCC(=O)C=C1CC[C@@H]1[C@@H]2[C@@H](O)C[C@@]2(C)[C@H]1CC[C@]2(O)C(=O)CO`, for which the inhibition in assay [2] came to 10.3%.

`CCCCCCCN(C(=O)c1ccc(Br)cc1)[C@H]1CC[C@H]2[C@@H]3CC[C@H]4N(C)C(=O)CC[C@]4(C)[C@H]3CC[C@]12C` registered an inhibition in assay [1] of 68%.

In assay [2], `C[C@]12CC[C@@H]3c4ccc(O)cc4C[C@@H](CCCCCCCCC[S+]([O-])CCCC(F)(F)C(F)(F)F)[C@H]3[C@@H]1CC[C@@H]2O` (stereo not given in full) gave an inhibition of 15.7%.

As to `C[C@]12CC[C@@H]3c4ccc(O)cc4CC[C@H]3[C@@H]1CC[C@H]2O`, the inhibition in assay [2] is 0%.

Take `C[C@]12CCC(=O)C[C@@H]1CC[C@@H]1[C@@H]2CC[C@]2(C)[C@@H](O)CC[C@@H]12`: the inhibition in assay [2] came to 49.6%.

In turn, `CCCCCCCCCCN(C(=O)c1ccc(F)cc1F)[C@H]1CC[C@H]2[C@@H]3CC[C@H]4N(C)C(=O)CC[C@]4(C)[C@H]3CC[C@]12C` displayed an inhibition in assay [1] of 80%.

For `CCCCCCCCCCN(C(=O)c1ccc(F)cc1)[C@H]1CC[C@H]2[C@@H]3CC[C@H]4N(C)C(=O)CC[C@]4(C)[C@H]3CC[C@]12C`, the inhibition in assay [1] is 71%.

`C[C@]12CC[C@H]3[C@@H](CC=C4C[C@@H](O)CC[C@@]43C)[C@@H]1CC[C@@H]2O` displayed an inhibition in assay [2] of 29.7%.

Turning to `CCCCCCCN(C(=O)c1ccc(F)cc1F)[C@H]1CC[C@H]2[C@@H]3CC[C@H]4N(C)C(=O)CC[C@]4(C)[C@H]3CC[C@]12C`, the inhibition in assay [1] was found to be 73%.

On to `C[C@]12C=CC(=O)C=C1CC[C@@H]1[C@@H]2CC[C@]2(C)C(=O)CC[C@@H]12`, for which the inhibition in assay [2] is 21.3%.

As for `CCCCCCCN(C(=O)c1ccccc1)[C@H]1CC[C@H]2[C@@H]3CC[C@H]4N(C)C(=O)CC[C@]4(C)[C@H]3CC[C@]12C`, the inhibition in assay [1] amounted to 56%.
